Measured values published in patent US9493455B2, “Azaindole derivatives as inhibitors of protein kinases” (ORIBASE PHARMA, priority 2012, dated 2016).
pEC50: −log10 of the molar value.

Tests used:
HuH7 = experiment: In vitro cell proliferation assay (MTT); assay type: cell-based; settings: Homo sapiens, Huh-7, 72 h
Summary of the method: (§1)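 For these tumour lines, 5×10^3 cells were plated per well. Compound exposure lasted 72 hr across concentrations of 10 nM to 3 μM, with duplicate wells per concentration. Viable cell proliferation was determined by MTT assay.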

HepG2 = experiment: In vitro cell proliferation assay (MTT); assay type: cell-based; settings: Homo sapiens, HepG2, 72 h
Summary of the method: as §1

HuH6 Clone 5 = experiment: In vitro cell proliferation assay (MTT); assay type: cell-based; settings: HUH-6-clone5, 72 h
Summary of the method: as §1

HuCCT1 = experiment: In vitro cell proliferation assay (MTT); assay type: cell-based; settings: Homo sapiens, HuCCT-1, 72 h
Summary of the method: as §1

HUVEC = experiment: In vitro cell proliferation assay (MTT); assay type: cell-based; settings: Homo sapiens, 72 h
Experimental: Cancer cell lines (5×10^3 cells per well) or HUVEC (1×10^4 cells per well) or HRMEC (1×10^4 cells per well) were distributed in 96-well plates and incubating in duplicate with escalating concentrations (10 nM to 3 μM) of compounds for 72 hr. Cell proliferation was measured using MTT (3 [4,5-dimethylthiazol-2-yl]-2,5-diphenyltetrazolium bromide).

PDGFRA (PDGFR alpha) = target: T1, PDGFRA (PDGFR alpha) (Homo sapiens, UniProt P16234); experiment: In vitro kinase assay (Z′-LYTE); assay type: biochemical; settings: read-out: % of inhibition of the kinase compared to the control
T1 construct: purchased Invitrogen
Summary of the method: (§2)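 Percent inhibition is derived from a coupled-enzyme fluorescence format in which unphosphorylated FRET peptide is preferentially proteolysed. Compounds are screened once at 100 nM (10 μM against ABL T315I) in 1% DMSO, with ATP at its apparent Km.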

EGFR (ErbB1) T790M L858R = target: T2, EGFR (ErbB1) T790M L858R (Homo sapiens, UniProt P00533, L858R/T790M); experiment: In vitro kinase assay (Z′-LYTE); assay type: biochemical; settings: read-out: % of inhibition of the kinase compared to the control
T2 construct: purchased Invitrogen
T2 sequence (P00533 25-1210 T790M/L858R): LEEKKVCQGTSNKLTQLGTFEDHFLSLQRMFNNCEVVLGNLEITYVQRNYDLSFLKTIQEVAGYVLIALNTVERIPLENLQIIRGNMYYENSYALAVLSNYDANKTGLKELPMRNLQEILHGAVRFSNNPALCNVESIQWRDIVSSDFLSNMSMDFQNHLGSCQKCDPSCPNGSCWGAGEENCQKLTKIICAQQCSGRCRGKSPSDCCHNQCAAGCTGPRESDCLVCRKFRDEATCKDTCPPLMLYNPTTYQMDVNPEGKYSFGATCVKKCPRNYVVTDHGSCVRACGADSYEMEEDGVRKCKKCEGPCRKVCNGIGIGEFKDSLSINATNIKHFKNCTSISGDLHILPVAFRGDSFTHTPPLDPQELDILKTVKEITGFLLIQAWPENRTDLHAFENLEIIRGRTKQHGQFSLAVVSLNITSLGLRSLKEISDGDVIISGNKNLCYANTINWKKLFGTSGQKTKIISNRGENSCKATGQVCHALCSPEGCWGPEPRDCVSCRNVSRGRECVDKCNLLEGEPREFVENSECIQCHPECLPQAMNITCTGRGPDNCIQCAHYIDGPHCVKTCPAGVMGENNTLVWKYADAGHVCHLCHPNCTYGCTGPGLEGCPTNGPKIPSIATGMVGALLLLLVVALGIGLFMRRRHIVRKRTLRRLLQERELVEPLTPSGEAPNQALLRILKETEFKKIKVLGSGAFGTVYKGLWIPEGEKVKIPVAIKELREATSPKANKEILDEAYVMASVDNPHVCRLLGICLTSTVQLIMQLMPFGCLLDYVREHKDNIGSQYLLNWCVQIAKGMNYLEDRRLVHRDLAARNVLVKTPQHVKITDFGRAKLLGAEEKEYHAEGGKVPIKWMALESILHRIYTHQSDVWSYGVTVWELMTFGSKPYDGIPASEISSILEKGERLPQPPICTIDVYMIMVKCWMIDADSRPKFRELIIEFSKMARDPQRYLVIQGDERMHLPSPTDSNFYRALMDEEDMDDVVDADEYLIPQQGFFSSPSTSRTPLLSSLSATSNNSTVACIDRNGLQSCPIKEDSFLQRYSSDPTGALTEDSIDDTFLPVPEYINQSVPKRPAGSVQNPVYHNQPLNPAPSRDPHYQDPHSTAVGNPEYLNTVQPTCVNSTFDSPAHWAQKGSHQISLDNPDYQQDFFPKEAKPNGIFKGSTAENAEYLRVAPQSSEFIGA
Summary of the method: as §2

VEGFR1 = target: T3, VEGFR1 (Homo sapiens, UniProt P17948); experiment: In vitro kinase assay (Z′-LYTE); assay type: biochemical; settings: read-out: % of inhibition of the kinase compared to the control
T3 construct: purchased Invitrogen
Summary of the method: as §2

BRAF = target: T4, BRAF (Homo sapiens, UniProt P15056); experiment: In vitro kinase assay (Z′-LYTE); assay type: biochemical; settings: compound 100 nM; ATP 100 μM; read-out: % of inhibition of the kinase compared to the control
T4 construct: purchased Invitrogen
Summary of the method: as §2

ABL T315I = target: T5, ABL T315I (Homo sapiens, UniProt P00519, T315I); experiment: In vitro kinase assay (Z′-LYTE); assay type: biochemical; settings: read-out: % of inhibition of the kinase compared to the control
T5 construct: purchased Invitrogen
Summary of the method: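 Peptide/kinase mix combined with ATP (apparent Km) in 50 mM HEPES pH 7.5, 10 mM MgCl2, 1 mM EGTA, 0.01% BRIJ-35; compound present at 100 nM, except 10 μM for ABL T315I; DMSO 1% final. Protease development, then FRET emission ratio.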

PDGFRB = target: T6, PDGFRB (Homo sapiens, UniProt P09619); experiment: In vitro kinase assay (Z′-LYTE); assay type: biochemical; settings: read-out: % of inhibition of the kinase compared to the control
T6 construct: purchased Invitrogen
Summary of the method: as §2

FGFR1 = target: T7, FGFR1 (Homo sapiens, UniProt P11362); experiment: In vitro kinase assay (Z′-LYTE); assay type: biochemical; settings: read-out: % of inhibition of the kinase compared to the control
T7 construct: purchased Invitrogen
T7 sequence (P11362 22-822): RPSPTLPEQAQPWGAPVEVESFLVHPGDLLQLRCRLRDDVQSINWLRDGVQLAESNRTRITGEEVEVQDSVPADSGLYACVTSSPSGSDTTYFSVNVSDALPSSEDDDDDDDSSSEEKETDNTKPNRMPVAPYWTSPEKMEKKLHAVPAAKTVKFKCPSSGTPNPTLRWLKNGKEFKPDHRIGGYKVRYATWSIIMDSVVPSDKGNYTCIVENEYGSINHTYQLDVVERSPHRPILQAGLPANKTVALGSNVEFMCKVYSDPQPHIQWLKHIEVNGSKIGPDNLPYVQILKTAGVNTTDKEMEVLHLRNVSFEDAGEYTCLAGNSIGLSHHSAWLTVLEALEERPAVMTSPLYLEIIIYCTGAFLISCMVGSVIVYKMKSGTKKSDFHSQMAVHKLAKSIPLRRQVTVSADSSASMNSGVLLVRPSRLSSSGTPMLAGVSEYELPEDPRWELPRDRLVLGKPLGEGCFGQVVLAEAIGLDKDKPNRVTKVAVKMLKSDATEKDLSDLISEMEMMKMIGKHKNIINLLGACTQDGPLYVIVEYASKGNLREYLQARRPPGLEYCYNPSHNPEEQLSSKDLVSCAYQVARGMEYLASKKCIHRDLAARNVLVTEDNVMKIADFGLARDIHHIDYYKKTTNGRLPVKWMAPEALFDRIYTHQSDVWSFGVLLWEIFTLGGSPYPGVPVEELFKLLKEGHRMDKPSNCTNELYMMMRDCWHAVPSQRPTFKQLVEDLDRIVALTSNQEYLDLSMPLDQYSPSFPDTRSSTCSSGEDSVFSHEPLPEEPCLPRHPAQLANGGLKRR
Summary of the method: as §2

SRC = target: T8, SRC (Homo sapiens, UniProt P12931); experiment: In vitro kinase assay (Z′-LYTE); assay type: biochemical; settings: read-out: % of inhibition of the kinase compared to the control
T8 construct: purchased Invitrogen
T8 sequence (P12931 whole entry): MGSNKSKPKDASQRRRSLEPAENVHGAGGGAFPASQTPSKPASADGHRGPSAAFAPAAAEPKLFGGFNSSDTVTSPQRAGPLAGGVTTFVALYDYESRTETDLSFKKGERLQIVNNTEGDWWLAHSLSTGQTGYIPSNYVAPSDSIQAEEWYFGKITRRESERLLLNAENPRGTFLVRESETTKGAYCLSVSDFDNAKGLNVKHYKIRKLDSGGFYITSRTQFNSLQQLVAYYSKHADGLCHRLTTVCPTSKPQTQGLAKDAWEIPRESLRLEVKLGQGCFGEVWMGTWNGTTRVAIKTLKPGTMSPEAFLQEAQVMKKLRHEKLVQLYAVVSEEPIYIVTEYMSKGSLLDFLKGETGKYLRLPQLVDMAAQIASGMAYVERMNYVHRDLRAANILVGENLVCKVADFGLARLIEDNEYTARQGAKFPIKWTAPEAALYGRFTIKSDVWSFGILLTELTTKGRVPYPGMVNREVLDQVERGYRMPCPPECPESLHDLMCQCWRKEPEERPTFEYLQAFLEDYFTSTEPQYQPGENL
Summary of the method: as §2

FGFR2 = target: T9, FGFR2 (Homo sapiens, UniProt P21802); experiment: In vitro kinase assay (Z′-LYTE); assay type: biochemical; settings: read-out: % of inhibition of the kinase compared to the control
T9 construct: purchased Invitrogen
T9 sequence (P21802 22-821): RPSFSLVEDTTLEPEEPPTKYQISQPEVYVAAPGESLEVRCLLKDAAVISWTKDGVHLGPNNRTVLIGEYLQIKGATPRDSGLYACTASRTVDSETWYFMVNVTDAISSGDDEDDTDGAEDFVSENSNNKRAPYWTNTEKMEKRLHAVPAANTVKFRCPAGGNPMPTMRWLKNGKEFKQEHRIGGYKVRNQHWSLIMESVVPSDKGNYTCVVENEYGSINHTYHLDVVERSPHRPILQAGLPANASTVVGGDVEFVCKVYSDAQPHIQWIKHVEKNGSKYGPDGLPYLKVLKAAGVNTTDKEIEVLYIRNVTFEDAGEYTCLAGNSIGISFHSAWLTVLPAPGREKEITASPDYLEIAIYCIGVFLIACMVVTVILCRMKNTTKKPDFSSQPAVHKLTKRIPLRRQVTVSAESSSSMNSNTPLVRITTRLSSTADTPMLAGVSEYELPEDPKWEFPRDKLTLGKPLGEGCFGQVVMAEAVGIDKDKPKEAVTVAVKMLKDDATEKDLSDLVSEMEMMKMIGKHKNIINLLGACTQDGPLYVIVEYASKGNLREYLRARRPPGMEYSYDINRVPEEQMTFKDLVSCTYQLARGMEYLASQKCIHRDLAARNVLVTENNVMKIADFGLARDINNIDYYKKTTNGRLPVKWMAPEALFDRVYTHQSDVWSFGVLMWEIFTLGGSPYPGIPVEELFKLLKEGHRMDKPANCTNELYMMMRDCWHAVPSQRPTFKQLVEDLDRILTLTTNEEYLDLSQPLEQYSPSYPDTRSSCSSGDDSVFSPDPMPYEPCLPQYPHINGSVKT
Summary of the method: as §2

EGFR (ErbB1) = target: T10, EGFR (ErbB1) (Homo sapiens, UniProt P00533); experiment: In vitro kinase assay (Z′-LYTE); assay type: biochemical; settings: read-out: % of inhibition of the kinase compared to the control
T10 construct: purchased Invitrogen
T10 sequence (P00533 25-1210): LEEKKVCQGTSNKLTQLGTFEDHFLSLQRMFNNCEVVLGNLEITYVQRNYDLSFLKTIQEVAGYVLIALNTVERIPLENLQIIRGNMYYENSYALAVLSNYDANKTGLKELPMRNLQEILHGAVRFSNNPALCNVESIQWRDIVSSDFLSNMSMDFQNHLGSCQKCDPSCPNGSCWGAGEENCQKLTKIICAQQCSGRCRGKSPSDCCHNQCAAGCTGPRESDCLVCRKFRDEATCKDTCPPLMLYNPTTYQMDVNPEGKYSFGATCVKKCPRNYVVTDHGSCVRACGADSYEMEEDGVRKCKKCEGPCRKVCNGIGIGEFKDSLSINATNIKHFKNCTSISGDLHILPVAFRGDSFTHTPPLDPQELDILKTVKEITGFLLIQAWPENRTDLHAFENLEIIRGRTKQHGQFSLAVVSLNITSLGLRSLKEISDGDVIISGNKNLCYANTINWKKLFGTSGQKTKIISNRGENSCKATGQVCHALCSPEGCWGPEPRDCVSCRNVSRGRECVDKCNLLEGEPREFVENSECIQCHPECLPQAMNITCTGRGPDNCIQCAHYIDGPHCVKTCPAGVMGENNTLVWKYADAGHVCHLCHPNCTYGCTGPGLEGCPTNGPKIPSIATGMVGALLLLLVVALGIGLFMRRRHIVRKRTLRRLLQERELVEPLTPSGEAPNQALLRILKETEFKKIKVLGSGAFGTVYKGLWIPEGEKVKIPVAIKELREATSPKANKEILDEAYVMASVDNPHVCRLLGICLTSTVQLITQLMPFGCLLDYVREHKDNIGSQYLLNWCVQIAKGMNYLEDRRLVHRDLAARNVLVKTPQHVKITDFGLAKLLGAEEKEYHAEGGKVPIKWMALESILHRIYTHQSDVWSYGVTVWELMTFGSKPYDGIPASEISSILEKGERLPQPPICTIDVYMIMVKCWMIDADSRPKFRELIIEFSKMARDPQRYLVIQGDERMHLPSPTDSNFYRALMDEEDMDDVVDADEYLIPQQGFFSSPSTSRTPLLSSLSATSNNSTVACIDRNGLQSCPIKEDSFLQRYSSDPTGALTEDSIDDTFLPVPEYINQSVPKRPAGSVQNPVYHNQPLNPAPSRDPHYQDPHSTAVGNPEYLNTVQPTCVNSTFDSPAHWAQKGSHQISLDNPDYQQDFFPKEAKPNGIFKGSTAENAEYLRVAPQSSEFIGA
Summary of the method: as §2

ABL = target: T11, ABL (Homo sapiens, UniProt P00519); experiment: In vitro kinase assay (Z′-LYTE); assay type: biochemical; settings: read-out: % of inhibition of the kinase compared to the control
T11 construct: purchased Invitrogen

KDR (VEGFR2) = target: T12, KDR (VEGFR2) (Homo sapiens, UniProt P35968); experiment: In vitro kinase assay (Z′-LYTE); assay type: biochemical; settings: read-out: % of inhibition of the kinase compared to the control
T12 construct: purchased Invitrogen
Summary of the method: as §2

BxPC-3 = experiment: In vitro cell proliferation assay (MTT); assay type: cell-based; settings: Homo sapiens, BXPC-3, 72 h
Summary of the method: as §1

HT29 = experiment: In vitro cell proliferation assay (MTT); assay type: cell-based; settings: Homo sapiens, HT-29, 72 h
Summary of the method: as §1

H1975 = experiment: In vitro cell proliferation assay (MTT); assay type: cell-based; settings: Homo sapiens, NCI-H1975, 72 h
Summary of the method: as §1

PC-3 = experiment: In vitro cell proliferation assay (MTT); assay type: cell-based; settings: Homo sapiens, PC-3, 72 h
Summary of the method: as §1

A549 = experiment: In vitro cell proliferation assay (MTT); assay type: cell-based; settings: Homo sapiens, A549, 72 h
Summary of the method: as §1

MDA-MB-231 = experiment: In vitro cell proliferation assay (MTT); assay type: cell-based; settings: Homo sapiens, MDA-MB-231, 72 h
Summary of the method: as §1

HeLa = experiment: In vitro cell proliferation assay (MTT); assay type: cell-based; settings: Homo sapiens, 72 h
Summary of the method: as §1

| SMILES | pEC50 (HepG2) | pEC50 (HUVEC) | inhibition at 0.1 µM (PDGFRA (PDGFR alpha)) [%] | inhibition at 0.1 µM (EGFR (ErbB1) T790M L858R) [%] | inhibition at 0.1 µM (VEGFR1) [%] | inhibition at 0.1 µM (BRAF) [%] | inhibition at 10 µM (ABL T315I) [%] | inhibition at 0.1 µM (PDGFRB) [%] | inhibition at 0.1 µM (FGFR1) [%] | inhibition at 0.1 µM (SRC) [%] | inhibition at 0.1 µM (FGFR2) [%] | inhibition at 0.1 µM (EGFR (ErbB1)) [%] | inhibition at 10 µM (ABL) [%] | inhibition at 0.1 µM (KDR (VEGFR2)) [%] | pEC50 (BxPC-3) | pEC50 (HT29) | pEC50 (H1975) | pEC50 (PC-3) | pEC50 (A549) | pEC50 (MDA-MB-231) | other results |
| --- | --- | --- | --- | --- | --- | --- | --- | --- | --- | --- | --- | --- | --- | --- | --- | --- | --- | --- | --- | --- | --- |
| CNC(=O)c1cc(Oc2ccc(NC(=O)Nc3ccc(Cl)c(C(F)(F)F)c3)cc2)ccn1 [Sorafenib, reference compound] | ≤ 6.00 | 6.00 to 7.00 | – | – | – | – | – | – | – | – | – | – | – | – | – | – | – | – | – | – | pEC50 (HuH7): ≤ 6.00; pEC50 (HuH6 Clone 5): ≤ 6.00; pEC50 (HuCCT1): ≤ 6.00 |
| COC(=O)c1cc2cc(NCc3cc(NC(=O)c4ccc(CN5CCC(O)CC5)c(C(F)(F)F)c4)ccc3C)cnc2[nH]1 [OR0636] | 6.00 to 7.00 | 6.00 to 7.00 | ≥ 50 | < 50 | < 50 | < 50 | < 50 | < 50 | < 50 | ≥ 50 | < 50 | ≥ 50 | ≥ 50 | < 50 | 6.00 to 7.00 | 6.00 to 7.00 | ≤ 6.00 | ≤ 6.00 | 6.00 to 7.00 | 6.00 to 7.00 | pEC50 (HuCCT1): ≤ 6.00 |
| COC(=O)c1cc2cc(NC(=O)c3cc(NC(=O)c4cncc(C(F)(F)F)c4)ccc3C)cnc2[nH]1 [OR0745] | 6.00 to 7.00 | 6.00 to 7.00 | ≥ 50 | < 50 | – | ≥ 50 | – | – | – | ≥ 50 | < 50 | < 50 | – | < 50 | – | 6.00 to 7.00 | ≤ 6.00 | – | 6.00 to 7.00 | 6.00 to 7.00 | pEC50 (HuH7): 6.00 to 7.00; pEC50 (HeLa): ≤ 6.00; pEC50 (HuH6 Clone 5): ≤ 6.00; pEC50 (HuCCT1): ≤ 6.00 |
| COC(=O)c1cc2cc(NCc3cc(NC(=O)c4cc(Nc5cc[nH]n5)cc(C(F)(F)F)c4)ccc3C)cnc2[nH]1 [OR0642] | ≥ 7.00 | ≥ 7.00 | < 50 | < 50 | < 50 | < 50 | ≥ 50 | < 50 | < 50 | ≥ 50 | < 50 | ≥ 50 | ≥ 50 | < 50 | 6.00 to 7.00 | 6.00 to 7.00 | ≤ 6.00 | ≤ 6.00 | 6.00 to 7.00 | ≥ 7.00 | – |
| COC(=O)c1cc2cc(NCc3cc(NC(=O)c4cccc(C(F)(F)F)c4)ccc3C)cnc2[nH]1 [OR0606] | ≥ 7.00 | ≥ 7.00 | ≥ 50 | < 50 | < 50 | < 50 | ≥ 50 | < 50 | < 50 | ≥ 50 | < 50 | ≥ 50 | ≥ 50 | < 50 | 6.00 to 7.00 | 6.00 to 7.00 | 6.00 to 7.00 | ≤ 6.00 | 6.00 to 7.00 | ≥ 7.00 | pEC50 (HeLa): ≤ 6.00 |
| COC(=O)c1cc2cc(NCc3cc(NC(=O)c4cc(N(C)C)cc(C(F)(F)F)c4)ccc3C)cnc2[nH]1 [OR0597] | ≥ 7.00 | 6.00 to 7.00 | < 50 | < 50 | < 50 | < 50 | ≥ 50 | < 50 | < 50 | ≥ 50 | < 50 | < 50 | ≥ 50 | < 50 | 6.00 to 7.00 | 6.00 to 7.00 | 6.00 to 7.00 | ≤ 6.00 | 6.00 to 7.00 | ≥ 7.00 | – |
| COC(=O)c1cc2cc(NCc3cc(NC(=O)c4cccc(OC(F)(F)F)c4)ccc3C)cnc2[nH]1 [OR0611] | ≥ 7.00 | 6.00 to 7.00 | ≥ 50 | < 50 | < 50 | < 50 | ≥ 50 | < 50 | < 50 | ≥ 50 | < 50 | < 50 | ≥ 50 | < 50 | ≥ 7.00 | 6.00 to 7.00 | 6.00 to 7.00 | ≤ 6.00 | 6.00 to 7.00 | ≥ 7.00 | pEC50 (HeLa): ≤ 6.00 |
| COC(=O)c1cc2cc(NCc3cc(NC(=O)c4ccc(Cn5cnc(C)c5)c(C(F)(F)F)c4)ccc3C)cnc2[nH]1 [OR0639] | 6.00 to 7.00 | 6.00 to 7.00 | ≥ 50 | < 50 | < 50 | ≥ 50 | ≥ 50 | < 50 | < 50 | < 50 | < 50 | ≥ 50 | ≥ 50 | ≥ 50 | 6.00 to 7.00 | 6.00 to 7.00 | ≤ 6.00 | ≤ 6.00 | 6.00 to 7.00 | 6.00 to 7.00 | pEC50 (HuCCT1): ≤ 6.00 |
